Assay results reported in PubChem BioAssay (NCI).
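In this assay, cells in 96-well plates receive the compound at five concentrations for 48 hours. Endpoints are linearly interpolated between the surrounding concentrations. Definition used: TGI = concentration required for complete inhibition of growth.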 Where a SMILES comes first, the peptide text is derived from it. [ ]: non-standard residue; d: D form. The star is where a group is joined. Iva = CC[C](C)(N)C(=O)O; Boc = CC(C)(C)OC(=O)*; X52 = C1CCC(=NO*)C1

Columns and labels:
Experiment in all cases: NCI-60 cell line screen, 48 h
SF-295 CNS = system: SF-295 CNS
RPMI-8226 leukemia = system: RPMI-8226 leukemia
CCRF-CEM leukemia = system: CCRF-CEM leukemia
786-0 renal = system: 786-0 renal
MALME-3M melanoma = system: MALME-3M melanoma
SK-OV-3 ovarian = system: SK-OV-3 ovarian
U251 CNS = system: U251 CNS
BT-549 breast = system: BT-549 breast
TK-10 renal = system: TK-10 renal
MDA-N = system: MDA-N
NCI-H522 lung = system: NCI-H522 lung
MDA-MB-231 breast = system: MDA-MB-231 breast
SF-539 CNS = system: SF-539 CNS
OVCAR-4 ovarian = system: OVCAR-4 ovarian
SN12C renal = system: SN12C renal
HT29 colon = system: HT29 colon
SF-268 CNS = system: SF-268 CNS
PC-3 prostate = system: PC-3 prostate
HL-60(TB) leukemia = system: HL-60(TB) leukemia
M19-MEL melanoma = system: M19-MEL melanoma

Q: Which results are given for `O=c1[nH]/c(=C/c2ccc(OCc3ccccc3)cn2)c(=O)[nH]/c1=C/c1ccc(F)cc1`?
A: TGI (SF-295 CNS): > 27.5 µM; TGI (RPMI-8226 leukemia): 10.8 µM; TGI (CCRF-CEM leukemia): > 44.7 µM; TGI (786-0 renal): 30 µM; TGI (MALME-3M melanoma): > 51.8 µM; TGI (SK-OV-3 ovarian): > 37.8 µM; TGI (U251 CNS): > 35.7 µM; TGI (BT-549 breast): > 58.5 µM; TGI (TK-10 renal): > 39.7 µM; TGI (MDA-N): 0.259 µM; TGI (NCI-H522 lung): 9.06 µM; TGI (MDA-MB-231 breast): > 51.3 µM; TGI (SF-539 CNS): 19.3 µM; TGI (OVCAR-4 ovarian): > 82.1 µM; TGI (SN12C renal): > 50.3 µM; TGI (HT29 colon): > 32.4 µM; TGI (SF-268 CNS): > 40.7 µM; TGI (PC-3 prostate): > 45.4 µM

Q: With `Cc1c(S(=O)(=O)O)ccc(N=Nc2c(O)c(C(=O)O)cc3ccccc23)c1Cl` as the compound, how does the TGI (SF-295 CNS) read?
A: > 100 µM

Q: What about the TGI (RPMI-8226 leukemia) of the same compound?
A: > 100 µM

Q: What about the TGI (CCRF-CEM leukemia) of the same compound?
A: > 100 µM

Q: What about the TGI (786-0 renal) of the same compound?
A: > 100 µM

Q: What about the TGI (MALME-3M melanoma) of the same compound?
A: > 100 µM

Q: What about the TGI (SK-OV-3 ovarian) of the same compound?
A: > 100 µM

Q: And the TGI (U251 CNS)?
A: > 100 µM

Q: What about the TGI (BT-549 breast) of the same compound?
A: > 100 µM

Q: And the TGI (TK-10 renal)?
A: > 100 µM

Q: And the TGI (MDA-N)?
A: > 100 µM

Q: And the TGI (NCI-H522 lung)?
A: > 100 µM

Q: What about the TGI (MDA-MB-231 breast) of the same compound?
A: > 100 µM

Q: And the TGI (OVCAR-4 ovarian)?
A: > 100 µM

Q: What about the TGI (SN12C renal) of the same compound?
A: > 100 µM

Q: And the TGI (HT29 colon)?
A: > 100 µM

Q: And the TGI (SF-268 CNS)?
A: > 100 µM

Q: And the TGI (PC-3 prostate)?
A: > 100 µM

Q: What about the TGI (HL-60(TB) leukemia) of the same compound?
A: > 100 µM

Q: What does the source list for `COc1ccc(-c2c3c(cc4cc5c(cc24)OCO5)C(=O)OC3)cc1OC`?
A: TGI (SF-295 CNS): 0.922 µM; TGI (RPMI-8226 leukemia): 9.98 µM; TGI (CCRF-CEM leukemia): > 52.1 µM; TGI (786-0 renal): 13.9 µM; TGI (MALME-3M melanoma): 2.92 µM; TGI (SK-OV-3 ovarian): > 62.1 µM; TGI (U251 CNS): 22 µM; TGI (BT-549 breast): 22.3 µM; TGI (TK-10 renal): > 100 µM; TGI (MDA-N): 13.3 µM; TGI (NCI-H522 lung): 5.95 µM; TGI (MDA-MB-231 breast): 25.4 µM; TGI (SF-539 CNS): 24.6 µM; TGI (OVCAR-4 ovarian): > 100 µM; TGI (SN12C renal): > 53.1 µM; TGI (HT29 colon): 6.55 µM; TGI (SF-268 CNS): > 48 µM; TGI (PC-3 prostate): 49.7 µM; TGI (HL-60(TB) leukemia): > 31.8 µM

Q: What does the source list for `COc1cc2cc3c4cc(OC)c(OC)cc4cc[n+]3cc2cc1OC`?
A: TGI (SF-295 CNS): > 100 µM; TGI (RPMI-8226 leukemia): > 100 µM; TGI (CCRF-CEM leukemia): > 100 µM; TGI (MALME-3M melanoma): > 100 µM; TGI (SK-OV-3 ovarian): > 100 µM; TGI (U251 CNS): > 100 µM; TGI (NCI-H522 lung): > 100 µM; TGI (SF-539 CNS): > 100 µM; TGI (OVCAR-4 ovarian): > 100 µM; TGI (SN12C renal): > 100 µM; TGI (HT29 colon): > 100 µM; TGI (SF-268 CNS): > 100 µM; TGI (M19-MEL melanoma): > 100 µM

Q: Which results are given for `CCC(C)(NC(=O)C(C)NC(=O)OC(C)(C)C)C(=O)NC(C)C(=O)NC(C)(CC)C(=O)ON=C1CCCC1` (stereo unspecified) (Boc-A[Iva]A[Iva]-X52; configuration not given here)?
A: TGI (SF-295 CNS): > 100 µM; TGI (RPMI-8226 leukemia): > 100 µM; TGI (CCRF-CEM leukemia): > 100 µM; TGI (MALME-3M melanoma): > 100 µM; TGI (SK-OV-3 ovarian): > 100 µM; TGI (U251 CNS): > 100 µM; TGI (BT-549 breast): > 100 µM; TGI (MDA-N): > 100 µM; TGI (NCI-H522 lung): > 100 µM; TGI (MDA-MB-231 breast): > 100 µM; TGI (SN12C renal): > 100 µM; TGI (PC-3 prostate): > 100 µM; TGI (HL-60(TB) leukemia): > 100 µM

Q: For `O=[N+]([O-])c1ccc(N=Nc2c(O)ccc3ccccc23)c([N+](=O)[O-])c1`, which TGI (SF-295 CNS) is on record?
A: > 100 µM

Q: And the TGI (RPMI-8226 leukemia)?
A: > 100 µM

Q: What about the TGI (CCRF-CEM leukemia) of the same compound?
A: > 64.6 µM

Q: And the TGI (786-0 renal)?
A: > 100 µM

Q: What about the TGI (MALME-3M melanoma) of the same compound?
A: > 100 µM

Q: And the TGI (SK-OV-3 ovarian)?
A: > 100 µM

Q: What about the TGI (U251 CNS) of the same compound?
A: > 100 µM

Q: What about the TGI (BT-549 breast) of the same compound?
A: > 100 µM

Q: What about the TGI (TK-10 renal) of the same compound?
A: > 100 µM

Q: And the TGI (MDA-N)?
A: > 100 µM

Q: What about the TGI (NCI-H522 lung) of the same compound?
A: > 100 µM

Q: What about the TGI (MDA-MB-231 breast) of the same compound?
A: > 100 µM

Q: And the TGI (OVCAR-4 ovarian)?
A: > 100 µM

Q: What about the TGI (SN12C renal) of the same compound?
A: > 100 µM

Q: What about the TGI (HT29 colon) of the same compound?
A: > 100 µM

Q: What about the TGI (SF-268 CNS) of the same compound?
A: > 100 µM

Q: And the TGI (PC-3 prostate)?
A: > 100 µM

Q: For `CCCSc1ccc2[nH]c(/N=C/c3ccccc3)cc2c1`, which TGI (RPMI-8226 leukemia) is on record?
A: 48.3 µM

Q: What about the TGI (CCRF-CEM leukemia) of the same compound?
A: 64.4 µM

Q: And the TGI (786-0 renal)?
A: 40.1 µM

Q: What about the TGI (MALME-3M melanoma) of the same compound?
A: 55.7 µM

Q: And the TGI (BT-549 breast)?
A: 97.2 µM

Q: What about the TGI (MDA-N) of the same compound?
A: 62.6 µM

Q: And the TGI (NCI-H522 lung)?
A: 46.2 µM

Q: What about the TGI (SF-539 CNS) of the same compound?
A: 46.3 µM

Q: What about the TGI (OVCAR-4 ovarian) of the same compound?
A: 88.2 µM

Q: And the TGI (SN12C renal)?
A: 45.7 µM

Q: And the TGI (HT29 colon)?
A: > 100 µM

Q: And the TGI (SF-268 CNS)?
A: 49.2 µM

Q: And the TGI (PC-3 prostate)?
A: > 100 µM

Q: `CC(C)OP(=O)(OC(C)C)c1nc(-c2ccccc2)n(-c2ccc([N+](=O)[O-])cc2)n1` was tested. Which TGI (SF-295 CNS) did it give?
A: > 100 µM

Q: And the TGI (RPMI-8226 leukemia)?
A: > 100 µM

Q: And the TGI (CCRF-CEM leukemia)?
A: > 100 µM

Q: And the TGI (MALME-3M melanoma)?
A: > 100 µM

Q: What about the TGI (SK-OV-3 ovarian) of the same compound?
A: > 100 µM

Q: What about the TGI (U251 CNS) of the same compound?
A: > 100 µM

Q: What about the TGI (TK-10 renal) of the same compound?
A: > 100 µM

Q: What about the TGI (NCI-H522 lung) of the same compound?
A: > 100 µM

Q: And the TGI (SF-539 CNS)?
A: > 100 µM

Q: And the TGI (OVCAR-4 ovarian)?
A: > 100 µM

Q: What about the TGI (SN12C renal) of the same compound?
A: > 100 µM

Q: What about the TGI (HT29 colon) of the same compound?
A: > 100 µM

Q: What about the TGI (SF-268 CNS) of the same compound?
A: > 100 µM

Q: And the TGI (HL-60(TB) leukemia)?
A: > 100 µM

Q: What about the TGI (M19-MEL melanoma) of the same compound?
A: > 100 µM
